Test results taken from patent publication US11066369B2, “N-(pyridin-2-yl)pyridine-sulfonamide derivatives and their use in the treatment of disease” (Novartis AG, priority 2016, dated 2021).
Counter-ions that a name gives are not always drawn. Like-named read-outs stand apart in the source and are kept apart here.

Target: T1, horseradish peroxidase (HRP) tagged delF508-CFTR (Homo sapiens, UniProt P13569, DEL508-508)
T1 construct: expressed in transfected cells
Test: Measurement of delF508-CFTR-HRP surface expression in CFBE41o- cells;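 for DelF508-CFTR-HRP Amax %: percent efficacy relative to reference corrector lumacaftor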
Format: cell-based
Conditions: CFBE41o- cells; for EC50: read-out: DelF508-CFTR-HRP EC50; for Emax: read-out: DelF508-CFTR-HRP Amax %
Description: Measurement of delF508-CFTR-HRP Surface Expression in CFBE41o-Cells
This assay quantifies the cell surface expressions of the mutant CFTR channel using an extracellular HRP tag.
A cellular assay was developed to measure surface expression of horseradish peroxidase (HRP) tagged delF508-CFTR in the human bronchial epithelial immortalized CFBE41o-cell line (Phuan, P. W., et al, (2014) Molecular Pharmacology 86:42-51). Specifically, the HRP sequence was inserted into the fourth extracellular loop of delF508-CFTR and stably expressed in CFBE41o-cells. Cells were seeded in 384 well plate at a density of 5000 cells/well and incubated at 37° C. for 12 to 24 hours in medium (Gibco MEM #11095, 10% FBS, 10 mM HEPES, […], 200 μg/mL G418, 3 μg/mL Puromycin). The delF508-CFTR-HRP expression was induced with 500 ng/mL doxycycline (Sigma D-9891, dissolved in H2O and sterile filtered) in medium and the cells were incubated at 37° C. for 48h. Old medium was removed and fresh medium was added containing 500 ng/mL doxycycline and unknown test compound at required test concentration in DMSO, not exceeding 0.5% final DMSO concentration. The highest concentration tested was 10 μM with a 10-point concentration response curve using a 3-fold dilution. After addition of compounds, the cells were incubated for 24h at 37° C. On the final day, cells were washed four times in PBS containing 1 mM MgCl2 and 0.1 mM CaCl2. HRP-Substrate (SuperSignal ELISA Pico, Fisher #37069) 20 μl/well was added and the luminescence signal was determined (Viewlux, Perkin Elmer). Light was emitted upon addition of exogenous HRP-Substrate only when delF508-CFTR-HRP reached the cell surface and the HRP tag was accessible to the HRP-Substrate (note: HRP-Substrate cannot cross the lipid bilayer to reach delF508-CFTR-HRP misfolded within the cell).
The median activity for the lowest concentration of the compounds on each assay plate was calculated and this value was used to normalize the signal for each well on the respective plate. Three replicates at each concentrations for every compound were run to determine one EC50. The median value was determined and used to calculate compound activities as described below. Effective half maximal values (EC50) were calculated for each compound by performing logistic regression on measured dose-response data points using the equation:
[formula] where “Y” is the observed activity, “Bottom” is the lowest observed value, “Top” is the highest observed value, and the “Hill coefficient” gives the largest absolute value of the slope. The curve fitting is carried out by a curve fitting program implemented at GNF using Matlab (Mathworks).
The dose response curves also were used to calculate Fold Change (FC) using the equation: […]
Compound efficacy relative to the reference compound 3-(6-(1-(2,2-difluorobenzo[d][1,3]dioxol-5-yl)cyclopropane-1-carboxamido)-3-methylpyridin-2-yl)benzoic acid was determined using the following formula: […]

[1] = mean of at least two replicates
[2] = delF508-CFTR-HRP surface expression

T1 sequence (P13569 with tags, fused parts or gaps DEL508-508): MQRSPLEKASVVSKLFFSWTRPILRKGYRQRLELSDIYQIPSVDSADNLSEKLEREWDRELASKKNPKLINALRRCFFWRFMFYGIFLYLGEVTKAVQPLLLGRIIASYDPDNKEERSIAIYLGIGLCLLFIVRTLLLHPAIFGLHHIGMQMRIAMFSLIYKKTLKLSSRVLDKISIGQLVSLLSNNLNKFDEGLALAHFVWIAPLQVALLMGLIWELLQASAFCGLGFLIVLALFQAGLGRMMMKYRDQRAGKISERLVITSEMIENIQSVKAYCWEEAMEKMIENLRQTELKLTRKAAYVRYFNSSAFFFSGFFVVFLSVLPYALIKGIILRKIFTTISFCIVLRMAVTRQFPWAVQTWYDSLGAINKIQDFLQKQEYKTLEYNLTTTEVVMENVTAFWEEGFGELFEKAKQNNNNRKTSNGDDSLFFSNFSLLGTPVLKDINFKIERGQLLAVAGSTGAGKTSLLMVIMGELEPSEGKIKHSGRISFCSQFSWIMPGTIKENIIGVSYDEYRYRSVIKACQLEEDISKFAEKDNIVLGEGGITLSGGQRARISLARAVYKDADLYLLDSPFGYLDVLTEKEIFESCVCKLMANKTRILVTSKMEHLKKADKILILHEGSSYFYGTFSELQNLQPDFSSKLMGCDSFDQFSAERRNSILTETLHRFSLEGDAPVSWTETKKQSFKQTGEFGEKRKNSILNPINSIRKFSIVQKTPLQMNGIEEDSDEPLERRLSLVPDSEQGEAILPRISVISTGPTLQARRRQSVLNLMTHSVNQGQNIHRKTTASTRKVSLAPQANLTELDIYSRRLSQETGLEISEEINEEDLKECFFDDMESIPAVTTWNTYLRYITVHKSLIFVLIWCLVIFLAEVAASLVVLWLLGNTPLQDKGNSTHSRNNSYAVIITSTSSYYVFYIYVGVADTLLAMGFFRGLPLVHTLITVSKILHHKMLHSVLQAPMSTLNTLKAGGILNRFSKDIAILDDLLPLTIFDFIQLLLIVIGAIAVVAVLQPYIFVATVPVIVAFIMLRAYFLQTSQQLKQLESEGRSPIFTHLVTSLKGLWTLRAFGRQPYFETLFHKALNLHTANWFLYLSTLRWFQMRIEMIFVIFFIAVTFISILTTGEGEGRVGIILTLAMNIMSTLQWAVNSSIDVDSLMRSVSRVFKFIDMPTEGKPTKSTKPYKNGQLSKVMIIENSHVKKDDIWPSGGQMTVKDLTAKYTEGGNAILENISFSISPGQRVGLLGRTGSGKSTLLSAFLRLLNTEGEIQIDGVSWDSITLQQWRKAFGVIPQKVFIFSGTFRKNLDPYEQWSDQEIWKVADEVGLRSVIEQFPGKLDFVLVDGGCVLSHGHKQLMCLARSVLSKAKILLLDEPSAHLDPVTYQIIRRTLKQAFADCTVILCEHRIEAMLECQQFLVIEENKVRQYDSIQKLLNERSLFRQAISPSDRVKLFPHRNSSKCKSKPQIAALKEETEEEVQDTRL

EC50 [1] [nM] | Emax (surface expression Amax) [%] | Emax [2] [%] | EC50 [2] [nM] | SMILES
757 |  |  |  | CCCc1ccccc1-c1nc(NS(=O)(=O)c2cccc(N3CCC[C@@](C)(C(=O)O)C3)n2)ccc1C(F)(F)F [Example 423, (R)-3-methyl-1-(6-(N-(6-(2-propylphenyl)-5-(trifluoromethyl)pyridin-2-yl)sulfamoyl)pyridin-2-yl)piperidine-3-carboxylic Acid]
1560 | 869 |  |  | C[C@@]1(C(=O)O)CCCN(c2cccc(S(=O)(=O)Nc3ccc(Cl)c(-c4ccccc4C4CC4)n3)n2)C1 [Example 437, (R)-1-(6-(N-(5-chloro-6-(2-cyclopropylphenyl)pyridin-2-yl)sulfamoyl)pyridin-2-yl)-3-methylpiperidine-3-carboxylic Acid]
1220 |  |  |  | CCCc1ccccc1-c1nc(NS(=O)(=O)c2cccc(N3CCC[C@](C)(C(=O)O)C3)n2)ccc1C(F)(F)F [Example 425, (S)-3-methyl-1-(6-(N-(6-(2-propylphenyl)-5-(trifluoromethyl)pyridin-2-yl)sulfamoyl)pyridin-2-yl)piperidine-3-carboxylic Acid]
1040 | 680 |  |  | CCc1ccccc1-c1nc(NS(=O)(=O)c2cccc(N3CCC[C@@](C)(C(=O)O)C3)n2)ccc1Cl [Example 393, (R)-1-(6-(N-(5-chloro-6-(2-ethylphenyl)pyridin-2-yl)sulfamoyl)pyridin-2-yl)-3-methylpiperidine-3-carboxylic Acid]
1920 | 210 |  |  | COc1ccc(NS(=O)(=O)c2cccc(N3CCC[C@@](C)(C(=O)O)C3)n2)nc1-c1ccccc1C [Example 410, (R)-1-(6-(N-(5-methoxy-6-(o-tolyl)pyridin-2-yl)sulfamoyl)pyridin-2-yl)-3-methylpiperidine-3-carboxylic Acid]
 |  | 141 | 2730 | Nc1cccc(S(=O)(=O)Nc2ccc(Cl)c(-c3c(F)ccc(F)c3F)n2)n1 [Example 78, 6-amino-N-(5-chloro-6-(2,3,6-trifluorophenyl)pyridin-2-yl)pyridine-2-sulfonamide]
796 |  |  |  | CCCc1ccccc1-c1nc(NS(=O)(=O)c2cccc(N3CCCC(C)(C(=O)O)C3)n2)ccc1C(F)(F)F (stereo not shown) [Example 401, 3-methyl-1-(6-(N-(6-(2-propylphenyl)-5-(trifluoromethyl)pyridin-2-yl)sulfamoyl)pyridin-2-yl)piperidine-3-carboxylic Acid]
 |  | 23.5 | 3550 | Cc1cccc(C)c1-c1ccc(F)c(NS(=O)(=O)c2cccc(N)n2)n1 [Example 93, 6-amino-N-(6-(2,6-dimethylphenyl)-3-fluoropyridin-2-yl)pyridine-2-sulfonamide]
2390 | 644 |  |  | Cc1ccccc1-c1nc(NS(=O)(=O)c2cccc(N3CCC4(CC4C(=O)O)C3)n2)ccc1C(F)(F)F (stereo not shown) [Example 419, 5-(6-(N-(6-(o-tolyl)-5-(trifluoromethyl)pyridin-2-yl)sulfamoyl)pyridin-2-yl)-5-azaspiro[2.4]heptane-1-carboxylic Acid]
615 | 711 |  |  | CCCc1ccccc1-c1nc(NS(=O)(=O)c2cccc(N3CCC(C)(C(=O)O)CC3)n2)ccc1C(F)(F)F [Example 398, 4-methyl-1-(6-(N-(6-(2-propylphenyl)-5-(trifluoromethyl)pyridin-2-yl)sulfamoyl)pyridin-2-yl)piperidine-4-carboxylic Acid]
1770 |  |  |  | Cc1ccccc1-c1nc(NS(=O)(=O)c2cccc(N3CCC[C@@](C)(C(=O)O)C3)n2)ccc1C(F)(F)F [Example 415, (3R)-3-methyl-1-(6-{[6-(2-methylphenyl)-5-(trifluoromethyl)pyridin-2-yl]sulfamoyl}pyridin-2-yl)piperidine-3-carboxylic Acid]
436 | 571 |  |  | CC(C)Oc1ccc(Cl)cc1-c1nc(NS(=O)(=O)c2cccc(N3CCCC(C)(C(=O)O)C3)n2)ccc1C(F)(F)F (stereo not shown) [Example 433, 1-(6-(N-(6-(5-chloro-2-isopropoxyphenyl)-5-(trifluoromethyl)pyridin-2-yl)sulfamoyl)pyridin-2-yl)-3-methylpiperidine-3-carboxylic Acid]
3650 | 64.3 |  |  | Cc1ccccc1-c1nc(NS(=O)(=O)c2cccc(N[C@@H]3C[C@@]4(C(=O)O)CC[C@@H]3O4)n2)ccc1C(F)(F)F (racemic) [Example 395, rac-(1RS,3RS,4SR)-3-((6-(N-(6-(o-tolyl)-5-(trifluoromethyl)pyridin-2-yl)sulfamoyl)pyridin-2-yl)amino)-7-oxabicyclo[2.2.1]heptane-1-carboxylic Acid]
 |  | 118 | 2800 | Cc1ccccc1-c1nc(NS(=O)(=O)c2cccc(N3CCNC[C@@H]3C(=O)O)n2)ccc1C(F)(F)F [Example 353, (2R)-1-(6-{[6-(2-methylphenyl)-5-(trifluoromethyl)pyridin-2-yl]sulfamoyl}pyridin-2-yl)piperazine-2-carboxylic Acid]
 |  | 553 | 3170 | Cc1ccc(F)cc1-c1nc(NS(=O)(=O)c2cccc(N3C[C@@H]4CC[C@H]3CN4)n2)ccc1C(F)(F)F [Example 200, 6-((1S,4S)-2,5-diazabicyclo[2.2.2]octan-2-yl)-N-(6-(5-fluoro-2-methylphenyl)-5-(trifluoromethyl)pyridin-2-yl)pyridine-2-sulfonamide Hydrochloride]
 |  | 692 | 1950 | Cc1cccc(C)c1-c1nc(NS(=O)(=O)c2cccc(N3CCn4ccnc4C3)n2)ccc1Cl [Example 198, N-(5-chloro-6-(2,6-dimethylphenyl)pyridin-2-yl)-6-(5,6-dihydroimidazo[1,2-a]pyrazin-7(8H)-yl)pyridine-2-sulfonamide]
2360 | 155 |  |  | CC(C)c1ccccc1-c1nc(NS(=O)(=O)c2cccc(N[C@@H]3C[C@@]4(C(=O)O)CC[C@@H]3O4)n2)ccc1C(F)(F)F (racemic) [Example 403, rac-(1RS,3RS,4SR)-3-((6-(N-(6-(2-isopropylphenyl)-5-(trifluoromethyl)pyridin-2-yl)sulfamoyl)pyridin-2-yl)amino)-7-oxabicyclo[2.2.1]heptane-1-carboxylic Acid]
 |  | 862 | 1110 | Cc1ccccc1-c1nc(NS(=O)(=O)c2cccc(N3CCN4CC(F)(F)C[C@H]4C3)n2)ccc1C(F)(F)F [Example 136, (S)-6-(7,7-difluorohexahydropyrrolo[1,2-a]pyrazin-2(1H)-yl)-N-(6-(o-tolyl)-5-(trifluoromethyl)pyridin-2-yl)pyridine-2-sulfonamide]
 |  | 404 | 2200 | Cc1ccccc1-c1nc(NS(=O)(=O)c2nc(N)ccc2F)ccc1Cl [Example 33, 6-amino-N-(5-chloro-6-(o-tolyl)pyridin-2-yl)-3-fluoropyridine-2-sulfonamide]
 |  | 888 | 2990 | Cc1ccc(F)cc1-c1nc(NS(=O)(=O)c2cccc(N3CCN(C(C)(C)C)CC3)n2)ccc1C(F)(F)F [Example 143, 6-(4-(tert-butyl)piperazin-1-yl)-N-(6-(5-fluoro-2-methylphenyl)-5-(trifluoromethyl)pyridin-2-yl)pyridine-2-sulfonamide]
2320 | 287 |  |  | COc1ccc(Cl)cc1-c1nc(NS(=O)(=O)c2cccc(N3CCC(C)(C(=O)O)CC3)n2)ccc1C(F)(F)F [Example 426, 1-(6-(N-(6-(5-chloro-2-methoxyphenyl)-5-(trifluoromethyl)pyridin-2-yl)sulfamoyl)pyridin-2-yl)-4-methylpiperidine-4-carboxylic Acid]
 |  | 658 | 971 | Cc1cccc(C)c1-c1nc(NS(=O)(=O)c2cccc(N3CCN(C(=O)OC(C)(C)C)CC3=O)n2)ccc1Cl [Example 188, tert-butyl 4-(6-(N-(5-chloro-6-(2,6-dimethylphenyl)pyridin-2-yl)sulfamoyl)pyridin-2-yl)-3-oxopiperazine-1-carboxylate]
